What was measured:
[1] = molecular target: human cathepsin L (Homo sapiens, UniProt P07711); test: biochemical
[2] = tested on: SARS-CoV-2 WT-USA-WA1; test: microbe, parasite or virus in culture; format: cell-based; settings: Severe acute respiratory syndrome coronavirus 2, Vero C1008, read-out: SARS-CoV-2 WT-USA-WA1 EC50
[3] = tested on: VeroE6 cells
[4] = tested on: SARS-CoV-2 WT-GHB-03021; test: microbe, parasite or virus in culture; format: cell-based; settings: Severe acute respiratory syndrome coronavirus 2, Vero C1008, read-out: SARS-CoV-2 WT-GHB-03021 EC50
[5] = in vitro; settings: African green monkey

human cathepsin L, sequence (P07711 114-333): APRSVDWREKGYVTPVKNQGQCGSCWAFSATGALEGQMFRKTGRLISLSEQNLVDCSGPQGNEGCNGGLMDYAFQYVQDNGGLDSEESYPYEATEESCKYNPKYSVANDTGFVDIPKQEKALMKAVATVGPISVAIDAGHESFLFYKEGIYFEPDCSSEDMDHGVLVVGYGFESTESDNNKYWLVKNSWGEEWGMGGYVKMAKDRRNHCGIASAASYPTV

| Structure (SMILES) | IC50 [1] | EC50 [2] | effect on the viability of uninfected host cells [3] | EC50 [4] | CC50 [5] |
| --- | --- | --- | --- | --- | --- |
| COc1cccc2[nH]c(C(=O)N3C[C@@H]4CCC[C@@H]4[C@H]3C(=O)N[C@@H](C[C@@H]3CCCNC3=O)C(=O)CO)cc12 [ALG-097161, (1S,3aR,6aS)-N-((S)-4-Hydroxy-3-oxo-1-((S)-2-oxopiperidin-3-yl)butan-2-yl)-2-(4-methoxy-1H-indole-2-carbonyl)octahydrocyclopenta[c]pyrrole-1-carboxamide] | > 10000 nM | 600 nM | no effect | 590 nM | > 10000 nM |
| Cn1cnc(Cn2c(=O)[nH]/c(=N\c3cc4cn(C)nc4cc3Cl)n(Cc3cc(F)c(F)cc3F)c2=O)n1 [Ensitrelvir, ensitrelvir] | > 10000 nM | 210 nM | – | – | – |
| CC(C)(C)[C@H](NC(=O)C(F)(F)F)C(=O)N1C[C@H]2[C@@H]([C@H]1C(=O)N[C@H](C#N)C[C@@H]1CCNC1=O)C2(C)C [Nirmatrelvir, nirmatrelvir] | – | 110 nM | – | 120 nM | > 10000 nM |
| COc1cccc2[nH]c(C(=O)N[C@@H](CC(C)C)C(=O)N[C@@H](C[C@@H]3CCNC3=O)C(=O)CO)cc12 [PF-00835231] | 130 nM | – | – | 190 nM | > 10000 nM |

Source: article PMC9973015 (mBio, 2023)
